Laboratory results as given in patent publication US20100168099A1, “1H-QUINOLIN-4-ONE COMPOUNDS, WITH AFFINITY FOR THE GABA RECEPTOR, PROCESSES, USES AND COMPOSITIONS” (FERRER INTERNACIONAL, S.A., priority 2006, published 2010).

Key:
[1] = system: α2-GABAA receptor; assay: Ligand-binding assay, radiolabeled flumazenil competition, spinal cord membranes; design: species or system rat; conditions: for Affinity for the α2-subunit of the GABAA receptor, % inhibition: rat spinal cord membranes, radiolabeled flumazenil 1 nM
Method: (§1) a) Ligand-binding Assays. Determination of the Affinity of Test Compounds for α1- and α2-GABAA, Receptor
(§2) Male Sprague-Dawley rats weighing 200-250 g at the time of experiment were used. After decapitation of the animal, the cerebellum (tissue that mostly contains α1-GABAA receptor) and spinal cord (tissue that mostly contains α2-GABAA receptor) were removed. The membranes were prepared according to the method by J. Lameh et al. (Prog. Neuro-Psychopharmacol. Biol. Psychiatry, 24, 979-991, 2000) and H. Noguchi et al. (Eur J Pharm, 434, 21-28, 2002) with slight modifications. Once the tissues weighed, they were suspended in 50 mM Tris.HCl (pH 7.4), 1:40 (v/v), or sucrose 0.32 M in the case of spinal cord, homogenized and then centrifuged at 20,000 g for 10 min at 7° C. The resulting pellet was resuspended under the same conditions and centrifuged again. The pellet was finally resuspended on a minimum volume and kept at −80° C. overnight. On the next day, the process was repeated until the final pellet was resuspended at a ratio of 1:10 (v/v) in the case of cerebellum and at a ratio of 1:5 (v/v) in the case of spinal cord.
(§3) Affinity was determined by competitive tests using radiolabeled flumazenil as ligand. The tests were performed according to the methods described by S. Arbilla et al. (Eur. J. Pharmacol., 130, 257-263, 1986); and Y. Wu et al. (Eur. J. Pharmacol., 278, 125-132, 1995) using 96-well microtiter plates. The membranes containing the study receptors, flumazenil (radiolabeling at a final concentration of 1 nM) and ascending concentrations of test compounds (in a total volume of 230 μL in 50 mM [pH 7.4] Tris.HCl buffer) were incubated. Simultaneously, the membranes were only incubated with the radiolabeled flumazenil (total binding, 100%) and in the presence of an elevated concentration of unradiolabeled flumazenil (non-specific binding, % estimation of radiolabeled ligand). The reactions started on adding the radiolabeled ligand followed by incubation for 60 minutes at 4° C. At the end of the incubation period, 200 μL of reaction were transferred to a multiscreen plate (Millipore) and filtered using a vacuum manifold and then washed three times with cold test buffer. The multiscreen plates were equipped with a GF/B filter that retained the membranes containing the receptors and the radiolabeled ligand which had been bound to the receptors. After washing, the plates were left till dry. Once dried, scintillation liquid was added and left under stirring overnight. The next day the plates were counted using a Perkin-Elmer Microbeta scintillation counter.
(§4) For analysis of the results the percentage of specific binding for every concentration of test compound was calculated as follows:
(§5) % specific binding=(X−N/T−N)×100
(§6) where, X: amount of bound ligand for every concentration of compound. T: total binding, maximum amount bound to the radiolabeled ligand. N: non-specific binding, amount of radiolabeled ligand bound in a non-specific way irrespective of the receptor used.
(§7) Every concentrations of compound were tested in triplicate and their mean values were used to determine the experimental values of % specific binding versus the concentration of compound. Affinity data are expressed as % inhibition at 10^−5M and 10^−7M concentrations.

[2] = system: spontaneous motor activity of male CD1 mice; assay: In vivo predictive sedation-hypnosis test (traveled distance); conditions: Mus musculus, ip, 0.5 h, 98 μmol/kg, single intraperitoneal dose, 30 minutes after dosing (first 5 min discarded), versus control
Method: b) In Vivo Determination of Predictive Sedative-Hypnotic Action
The in vivo effects of these compounds were assessed by a predictive sedation-hypnosis test in mice (D. J. Sanger et al., Eur. J. Pharmacol., 313, 35-42, 1996; and G. Griebel et al., Psychopharmacology, 146, 205-213, 1999).
Groups of 5-8 male CD1 mice, weighing 22-26 g at the time of test, were used. The test compounds were administered in single equimolecular intraperitoneal doses, suspended in 0.25% agar with one drop of Tween in a volume of 10 mL/kg. Control animals received the vehicle alone. Using a Smart System (Panlab, S. L., Spain) the traveled distance in cm was recorded for each mouse at 5 min intervals during a period of 30 minutes after dosing. The inhibition percentage traveled distance of treated animals versus control animals (the first 5 min were discarded) was calculated.

[3] = system: α1-GABAA receptor; assay: Ligand-binding assay, radiolabeled flumazenil competition, cerebellum membranes; design: species or system rat; conditions: rat cerebellum membranes, radiolabeled flumazenil 1 nM
Method: as §1, §2, §3, §4, §5, §6, §7

Cc1ccc2c(=O)c(-c3ccccc3)cn(CC(=O)N3C(C)C=CC3C)c2c1 (stereo not shown) [Example 42, 1-[2-(2,5-Dimethyl-2,5-dihydro-pyrrol-1-yl)-2-oxo-ethyl]-7-methyl-3-phenyl-1H-quinolin-4-one]
Affinity for the α2-subunit of the GABAA receptor, % inhibition ([1]; 10^−5M): 74.1%
Affinity for the α2-subunit of the GABAA receptor, % inhibition ([1]; 10^−7M): 0.0%
inhibition in vivo at 98 µmol/kg [2]: 92.2%
Affinity for the α1-subunit of the GABAA receptor, % inhibition ([3]; 10^−5M): 97.0%
Affinity for the α1-subunit of the GABAA receptor, % inhibition ([3]; 10^−7M): 25.6%

C=CCN(CC=C)C(=O)Cn1cc(-c2ccccc2)c(=O)c2ccc(C)cc21 [Example 43, N,N-Diallyl-2-(7-methyl-4-oxo-3-phenyl-4H-quinolin-1-yl)-acetamide]
Affinity for the α2-subunit of the GABAA receptor, % inhibition ([1]; 10^−5M): 88.2%
Affinity for the α2-subunit of the GABAA receptor, % inhibition ([1]; 10^−7M): 12.5%
affinity for the α2-subunit of GABAA receptor (in words) ([1]; compared with zolpidem where stated): higher affinity than prior art compound zolpidem
inhibition in vivo at 98 µmol/kg [2]: 91%
Affinity for the α1-subunit of the GABAA receptor, % inhibition ([3]; 10^−5M): 99.0%
Affinity for the α1-subunit of the GABAA receptor, % inhibition ([3]; 10^−7M): 49.9%

CCCN(CCC)C(=O)Cn1cc(-c2ccccc2)c(=O)c2ccccc21 [Example 47, 2-(4-Oxo-3-phenyl-4H-quinolin-1-yl)-N,N-dipropyl-acetamide]
Affinity for the α2-subunit of the GABAA receptor, % inhibition ([1]; 10^−5M): 68.9%
Affinity for the α2-subunit of the GABAA receptor, % inhibition ([1]; 10^−7M): 0.0%
inhibition in vivo at 98 µmol/kg [2]: 74.7%
Affinity for the α1-subunit of the GABAA receptor, % inhibition ([3]; 10^−5M): 88.1%
Affinity for the α1-subunit of the GABAA receptor, % inhibition ([3]; 10^−7M): 2.3%

COc1ccc(NC(=O)Cn2cc(-c3ccc(OC)cc3)c(=O)c3ccc(C)cc32)cc1 [Example 80, N-(4-Methoxy-phenyl)-2-[3-(4-methoxy-phenyl)-7-methyl-4-oxo-4H-quinolin-1-yl]acetamide]
Affinity for the α2-subunit of the GABAA receptor, % inhibition ([1]; 10^−5M): 65.1%
Affinity for the α2-subunit of the GABAA receptor, % inhibition ([1]; 10^−7M): 15.7%
inhibition in vivo at 98 µmol/kg [2]: 71.9%
Affinity for the α1-subunit of the GABAA receptor, % inhibition ([3]; 10^−5M): 78.5%
Affinity for the α1-subunit of the GABAA receptor, % inhibition ([3]; 10^−7M): 28.5%

C=CCN(CC=C)C(=O)Cn1cc(-c2ccc(OC)cc2)c(=O)c2ccc(C)cc21 [Example 97, N,N-Diallyl-2-[3-(4-methoxy-phenyl)-7-methyl-4-oxo-4H-quinolin-1-yl]-acetamide]
Affinity for the α2-subunit of the GABAA receptor, % inhibition ([1]; 10^−5M): 62.0%
Affinity for the α2-subunit of the GABAA receptor, % inhibition ([1]; 10^−7M): 0.0%
inhibition in vivo at 98 µmol/kg [2]: 76.8%
Affinity for the α1-subunit of the GABAA receptor, % inhibition ([3]; 10^−5M): 90.7%
Affinity for the α1-subunit of the GABAA receptor, % inhibition ([3]; 10^−7M): 4.9%

Cc1ccc(-c2nc3ccc(C)cn3c2CC(=O)N(C)C)cc1 [zolpidem, reference compound]
Affinity for the α2-subunit of the GABAA receptor, % inhibition ([1]; 10^−5M): 74.1%
Affinity for the α2-subunit of the GABAA receptor, % inhibition ([1]; 10^−7M): 19.9%
inhibition in vivo at 98 µmol/kg [2]: 91.7%
Affinity for the α1-subunit of the GABAA receptor, % inhibition ([3]; 10^−5M): 99.8%
Affinity for the α1-subunit of the GABAA receptor, % inhibition ([3]; 10^−7M): 51.9%
